For the experiment, the system named is Staphylococcus aureus (SAUR 9213). Briefly: MIC by standard agar dilution method. The format is cell-based. The settings on record: Mueller Hinton agar, overnight at 35° C. The source says:
The antibacterial agents of this invention have useful activity against a variety of organisms. The in vitro activity of compounds of this invention can be assessed by standard testing procedures such as the determination of minimum inhibitory concentration (MIC) by agar dilution as described in “Approved Standard. Methods for Dilution Antimicrobial Susceptibility Tests for Bacteria That Grow Aerobically”, 3rd. ed., published 1993 by the National Committee for Clinical Laboratory Standards, Villanova, Pa., USA. The in vitro MICs of test compounds are determined by a standard agar dilution method. A stock drug solution of each analog is prepared in the preferred solvent, usually DMSO:H2O (1:3). Serial 2-fold dilutions of each sample are made using 1.0 ml aliquots of sterile distilled water. To each 1.0 ml aliquot of drug is added 9 ml of molten Mueller Hinton agar medium. The drug-supplemented agar is mixed, poured into 15×100 mm petri dishes, and allowed to solidify and dry prior to inoculation. Vials of each of the test organisms are maintained frozen in the vapor phase of a liquid nitrogen freezer. Test cultures are grown overnight at 35° C. on the medium appropriate for the organism. Colonies are harvested with a sterile swab, and cell suspensions are prepared in Trypticase Soy broth (TSB) to equal the turbidity of a 0.5 McFarland standard. A 1:20 dilution of each suspension is made in TSB. The plates containing the drug supplemented agar are inoculated with a 0.001 ml drop of the cell suspension using a Steers replicator, yielding approximately 10^4 to 10^5 cells per spot. The plates are incubated overnight at 35° C. Following incubation the Minimum Inhibitory Concentration (MIC μg/ml), the lowest concentration of drug that inhibits visible growth of the organism, is read and recorded.
(Agar dilution tests growth on a series of plates holding different concentrations.)

The structures appear in SMILES notation. In brackets after ≈: the same amount, converted by molar mass.

A word on the MIC: it is the lowest concentration that inhibits growth of the organism. With `Cc1nnc(-c2ccc(N3C[C@H](C#N)OC3=O)cc2F)s1` [Example 4, (5R)-3-[3-fluoro-4-(5-methyl-1,3,4-thiadiazol-2-yl)phenyl]-2-oxo-1,3-oxazolidine-5-carbonitrile], the MIC was 4 mg/L (≈ 13.1 µM).

In turn, `N#C[C@H]1CN(c2ccc(-c3ccncc3)c(F)c2)C(=O)O1` [Example 5, (5R)-3-(3-fluoro-4-pyridin-4-ylphenyl)-2-oxo-1,3-oxazolidine-5-carbonitrile] returned an MIC of 0.5 mg/L (≈ 1.77 µM).

`N#C[C@H]1CN(c2ccc(N3CCOCC3)c(F)c2)C(=O)O1` [Example 2, (5R)-3-(3-fluoro-4-morpholin-4-ylphenyl)-2-oxo-1,3-oxazolidine-5-carbonitrile] gave an MIC of 8 mg/L (≈ 27.5 µM).

`N#C[C@H]1CN(c2ccc(C3CCS(=O)(=O)CC3)c(F)c2)C(=O)O1` [Example 1, (5R)-3-[4-(1,1-dioxidotetrahydro-2H-thiopyran-4-yl)-3-fluorophenyl]-2-oxo-1,3-oxazolidine-5-carbonitrile] returned an MIC of 1 mg/L (≈ 2.96 µM).

Take `N#C[C@H]1CN(c2cc(F)c(N3CCS(=O)(=O)CC3)c(F)c2)C(=O)O1` [Example 3, (5R)-3-[4-(1,1-dioxidothiomorpholin-4-yl)-3,5-difluorophenyl]-2-oxo-1,3-oxazolidine-5-carbonitrile]: the MIC was 2 mg/L (≈ 5.6 µM).

Source of the values: US20050075382A1, “N-Aryl-2-cyanooxazolidinones and their derivatives” (priority 2003, published 2005).
